Experimental data from ChEMBL document CHEMBL4689842, “EUbOPEN Chemogenomics Library wave 1” (2021).

Assays:
Type in all cases: toxicity, cell-based
U2OS = test: Incucyte cell viability with U2OS; conditions: human, 10 µM, compound concentration 10 uM
HEK-293T = test: Incucyte cell viability with HEK293T; conditions: human, 10 µM, compound concentration 10 uM
Fibroblast = test: Incucyte cell viability with human fibroblast; conditions: 10 µM, compound concentration 10 uM
[1] = 0 h, replicate number 1, timepoint 0 hours
[2] = 6 h, replicate number 2, timepoint 6 hours
[3] = 12 h, replicate number 1, timepoint 12 hours
[4] = 18 h, replicate number 1, timepoint 18 hours
[5] = 24 h, replicate number 1, timepoint 24 hours
[6] = 6 h, replicate number 1, timepoint 6 hours
Also: filed as whole numbers so only -1 and 0 and 1 occur.

CCC(=O)NC1Cc2ccccc2C(c2ccccc2)C1 (configuration not stated)
Growth Rate (U2OS; [1]): 0 | Growth Rate (U2OS; [2]): 0 | Growth Rate (U2OS; [3]): 1 | Growth Rate (U2OS; [4]): 1 | Growth Rate (U2OS; 18 h, replicate number 2, timepoint 18 hours): 0 | Growth Rate (U2OS; [5]): 0 | Growth Rate (HEK-293T; [1]): 0 | Growth Rate (HEK-293T; [6]): 1 | Growth Rate (HEK-293T; [2]): 0 | Growth Rate (HEK-293T; [3]): 0 | Growth Rate (HEK-293T; [4]): 0 | Growth Rate (HEK-293T; [5]): 0 | Growth Rate (Fibroblast; [1]): 0 | Growth Rate (Fibroblast; [6]): 0 | Growth Rate (Fibroblast; [3]): 0 | Growth Rate (Fibroblast; [4]): 0 | Growth Rate (Fibroblast; [5]): 0
